Measured values from patent US20150031686A1, “PHENYL-OXAZOLYL DERIVATIVES, PREPARATION METHOD THEREOF, AND RELATED APPLICATION OF THE PHENYL-OXAZOLYL DERIVATIVES AS AN IMPDH INHIBITOR” (INSTITUTE OF MEDICINAL BIOTECHNOLOGY, CHINESE ACADEMY OF …, priority 2012, published 2015).
Values after ≈ are worked out from the molar mass of the structure shown.

What was measured:
[1] = system: IMPDH; assay: IMPDH inhibition activity (A340, IMP substrate, NAD); format: biochemical; conditions: compound at 10 μg/mL
Method: Measurement of IMPDH Inhibitor Activity
In 96-well plates, use IMP as the substrate and NAD, NADH as chromogenic agents to determine the activity of the compounds described in this invention as IMPDH inhibitor. Add 2 μl of each of the tested sample solution, 20 μl enzyme extract and 30 μl IMP into a sample well in the 96-well plates; 2 μl DMSO and 30 μl IMP solution into a control well; 2 μl DMSO and 20 μl IMPDH buffer instead of the enzyme extract and 30 μl IMP solution into a blank well. Keep plates at constant 37° C. for 15 min, measure absorbance values A340 (OD1) of the solutions in various wells; subsequently, add into each well with 50 μl NAD, keep at constant 37° C. for 50 min, then measure A340 (OD2) values. Calculate IMPDH inhibition rates of samples as follows: Inhibition (%)=[(OD2−OD1)control−(OD2−OD1)Sample]/[(OD2−OD1)control−(OD2−OD1)Blank]×100%.

[2] = system: Coxsackie virus type B3 (COX-B3); assay: Anti-Coxsackie virus type B3 (COX-B3) activity, CPE in Vero cells; format: cell-based; conditions: Reed-Muench
Summary of the method: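 Vero cells infected with 10^−5 COX-B3 or COX-B6 virus, adsorbed 2 h; virus removed, then compounds added at eight 3-fold dilutions, ribavirin as positive control. CPE scored when virus controls reached 4+; IC50 by Reed-Muench.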

[3] = system: Coxsackie virus type B6 (COX-B6); assay: Anti-Coxsackie virus type B6 (COX-B6) activity, CPE in Vero cells; format: cell-based; conditions: Reed-Muench
Method: With Vero (African green monkey kidney) cells as viral hosts, inhibitory effects of the compounds of present invention on the grades of pathological lesions by coxsackievirus B3 (COX-B3), B6 (COX-B6) viruses in Vero cells were determined. The measured results of viral inhibitory activity of the compounds are shown in Table 3 and Table 4; wherein RBV is the control drug ribavirin. The inhibitory activities of the measured compounds against coxsackievirus B3, B6 were stronger than the control.
Screening of Anti-B3, B6 Type Coxsackie Viruses (COX-B3, COX-B6) Activity of the Samples
Prepare stock solutions of COX-B3 (or COX-B6) virus strains as well as tested compounds in DMSO before use. Before tests, dilute the stock solution with culture solution into a certain concentration and then dilute 3 times to make a total of eight dilutions. Use ribavirin (RBV) as positive control. Test procedures are as follows: seed Vero cells into 96-well culture plates, infect with 10^−5 Coxsackie virus of B3 (or B6) type, 24 hours later; adsorb subsequently for 2 hours, then discard the virus solution, add in the sample compounds and the positive control according to the abovementioned dilutions, set cell control wells and virus control wells simultaneously. When the cytopathic effect (CPE) of cells in the virus control wells reach 4+, observe CPE of the cells in each group. Use Reed-Muench method to calculate 50% inhibitory concentration (IC50) of the sample compounds against coxsackie virus B3 (or B6) type.

[4] = system: human hepatoma cell HepG2; assay: In vitro human hepatoma cell HepG2 inhibitory activity (MTT); format: cell-based; conditions: Homo sapiens, HepG2, 48 h
Description: (§1) According to the progress in the studies on anticancer drugs using IMPDH as a target, the present invention measured inhibitory activities of the compounds of present invention against human hepatoma cell HepG2 and human lung adenocarcinoma cell A549, respectively, the measured results are shown in Table 5:
In Vitro Human Hepatoma Cell HepG2 Inhibitory Activity Measurement
Collect well growing tumor cells, prepare 6×10^4/ml cell suspension in RPMI-1640 or DMEM culture medium containing 10% FBS, seed in 96-well plates, 100 μl suspension each well, incubate at 37° C. under 5% CO2 atmosphere for 24 h, add the test solution (final concentration of drug: 0.625, 1.25, 2.5, 5.0, 10 μg/ml), for each concentration set three parallel holes, set positive control (cisplatin 10, 1, 0.1 μg/ml) and a blank control simultaneously. After culture for 48 h discard the supernatants, add into each well 10 μl MTT solution (5 mg/ml, prepared with RPMI-1640 medium), continue culturing for 4 It, add into each hole 100 μl acidified isopropanol cell lysate, culture overnight, measure absorbance (A) values with Bio-Tek MQX200 type microplate reader with the detection wavelength at 540 nm, and reference wavelength 450 nm. Calculate the inhibition rate as follows: inhibition rate=(Ablank−Asample)/Ablank control×100%. Use Graphpad Prism 5 statistical software to calculate IC50.

[5] = system: human lung adenocarcinoma cell A549; assay: In vitro human lung adenocarcinoma cell A549 inhibitory activity (MTT); format: cell-based; conditions: Homo sapiens, A549, 48 h
Description: as §1
In Vitro Human Lung Adenocarcinoma Cell A549 Inhibitory Activity Measurement
Cell lines: human lung adenocarcinoma cell A549. Collect well growing tumor cells, prepare cell suspension with Ham's F12 culture solution containing 10% fetal calf serum medium, seed the suspension in 96-well plates, each well 100 μl suspension at 5000 cells/well, incubate at 37° C., under 5% CO2 atmosphere, 24 h later, add 2×drug solution […], each concentration in three parallel holes, set the blank control simultaneously. After culture for 48 h, add 20 μl (5 mg/ml) MTT to each well, culture 4 h, discard the supernatants. Measure absorbance (A) values using Bio-Rad 680 microplate reader at a detection wavelength of 570 nm, the survival rate (%) is calculated as follows: AsampleAblank control×100%. Use statistical software Graphpad Prism5 to calculate IC50. After primary screening of all samples, adjust the concentration gradient of the samples with IC50<100 μg/ml to do additional screenings, which are carried out with two parallel determinations.

[6] = system: hepatitis B virus; conditions: cell line 2215, hepatitis B virus
[7] = system: hepatitis B virus strain A64 (lamivudine resistance)
[8] = system: hepatitis B virus; assay: in vitro; conditions: human
[9] = system: hepatitis B virus strain A64 (lamivudine resistance); assay: in vitro; conditions: human
[10] = system: hepatitis B virus; assay: microbe, parasite or virus in culture; conditions: read-out: IC50 (50% inhibition concentration of the virus)
[11] = system: hepatitis B virus strain A64 (lamivudine resistance); assay: microbe, parasite or virus in culture; conditions: read-out: IC50 (50% inhibition concentration of the virus)

Question: For `COc1cc(NCc2ccc(Cl)s2)ccc1-c1cnco1` [Compound 4, N-(5-chlorothien-2-ylmethyl)-3-methoxy-4-(oxazol-5-yl) aniline], which “inhibition rate (%) 10 μg/mL” value [1] is on record?
Answer: Its value is 74.9%.

Question: What about the IC50 [2] of the same compound?
Answer: Its IC50 is 0.44 µg/mL (≈ 1.37 µM).

Question: What about the IC50 [3] of the same compound?
Answer: The IC50 was 0.27 µg/mL (≈ 0.842 µM).

Question: What about the IC50 [4] of the same compound?
Answer: Its IC50 is 29.1 µg/mL (≈ 90.7 µM).

Question: What about the IC50 [5] of the same compound?
Answer: Its IC50 is 16 µg/mL (≈ 50 µM).

Question: What about the “TC50 (half toxic concentration)” value [6] of the same compound?
Answer: The value was 100 µg/mL (≈ 312 µM).

Question: And the “TC50 (half toxic concentration)” value [7]?
Answer: Its value is greater than 50 µg/mL.

Question: And the selectivity ratio [8]?
Answer: Its selectivity ratio is 36.8.

Question: What about the selectivity ratio [9] of the same compound?
Answer: Its selectivity ratio is greater than 28.1.

Question: What about the IC50 [10] of the same compound?
Answer: The IC50 was 2.72 µg/mL (≈ 8.48 µM).

Question: And the IC50 [11]?
Answer: Its IC50 is 1.78 µg/mL (≈ 5.55 µM).
